From ChEMBL document CHEMBL1201862, “PubChem BioAssay data set” (2004)
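Cultured in 96-well plates, cells were exposed to test compound for 48 hours across five concentrations. Abbreviation: GI50, concentration required for 50% inhibition of growth.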 Activity calls are given as the source filed them. Rule as the data show it: active = GI50 up to about 1.1 µM and inactive = higher.

What was measured:
Test in all cases: DTP human tumour cell line panel, 48 h
786-0 = tested on: 786-0
A498 = tested on: A498
A549 = tested on: A549
ACHN = tested on: ACHN
BT-549 = tested on: BT-549
CAKI-1 = tested on: CAKI-1
CCRF-CEM = tested on: CCRF-CEM
COLO 205 = tested on: COLO 205
DLD-1 = tested on: DLD-1
DMS-114 = tested on: DMS-114
DMS-273 = tested on: DMS-273
DU-145 = tested on: DU-145
EKVX = tested on: EKVX
HCC 2998 = tested on: HCC 2998
HCT-116 = tested on: HCT-116
HCT-15 = tested on: HCT-15
HL-60 = tested on: HL-60
HOP-18 = tested on: HOP-18
HOP-62 = tested on: HOP-62
HOP-92 = tested on: HOP-92
HT-29 = tested on: HT-29
Hs-578T = tested on: Hs-578T
IGROV-1 = tested on: IGROV-1
K562 = tested on: K562
KM-20L2 = tested on: KM-20L2
KM12 = tested on: KM12
LOX IMVI = tested on: LOX IMVI
LXFL 529 = tested on: LXFL 529
M14 = tested on: M14
M19-MEL = tested on: M19-MEL
MCF7 = tested on: MCF7
MDA-MB-231 = tested on: MDA-MB-231
MDA-MB-435 = tested on: MDA-MB-435
MDA-N = tested on: MDA-N
MOLT-4 = tested on: MOLT-4
Malme-3M = tested on: Malme-3M
NCI-H226 = tested on: NCI-H226
NCI-H23 = tested on: NCI-H23
NCI-H460 = tested on: NCI-H460
NCI-H522 = tested on: NCI-H522
NCI/ADR-RES = tested on: NCI/ADR-RES
OVCAR-3 = tested on: OVCAR-3
OVCAR-4 = tested on: OVCAR-4
OVCAR-5 = tested on: OVCAR-5
OVCAR-8 = tested on: OVCAR-8
PC-3 = tested on: PC-3
RPMI-8226 = tested on: RPMI-8226
RXF 393 = tested on: RXF 393
RXF 631 = tested on: RXF 631
SF-268 = tested on: SF-268
SF-295 = tested on: SF-295
SF-539 = tested on: SF-539
SK-MEL-28 = tested on: SK-MEL-28
SK-MEL-2 = tested on: SK-MEL-2
SK-MEL-5 = tested on: SK-MEL-5
SK-OV-3 = tested on: SK-OV-3
SN12C = tested on: SN12C
SNB-19 = tested on: SNB-19
SNB-75 = tested on: SNB-75
SNB-78 = tested on: SNB-78
SR = tested on: SR
SW-620 = tested on: SW-620
T47D = tested on: T47D
TK-10 = tested on: TK-10
U-251 = tested on: U-251
UACC-257 = tested on: UACC-257
UACC-62 = tested on: UACC-62
UO-31 = tested on: UO-31

## O=C(/C=C/c1ccc(OCC(=O)N2CCN(c3ccccc3)CC2)cc1)c1ccc(Cl)cc1
786-0
  GI50: 22 µM (inactive)
A498
  GI50: 23.4 µM (inactive)
A549
  GI50: 38.7 µM (inactive)
ACHN
  GI50: 22.4 µM (inactive)
BT-549
  GI50: 43.4 µM (inactive)
CAKI-1
  GI50: 78.5 µM (inactive)
CCRF-CEM
  GI50: > 100 µM (inactive)
COLO 205
  GI50: > 100 µM (inactive)
DLD-1
  GI50: > 100 µM (inactive)
DMS-114
  GI50: > 65.3 µM (inactive)
DMS-273
  GI50: 55 µM (inactive)
DU-145
  GI50: 51.2 µM (inactive)
EKVX
  GI50: > 60.7 µM (inactive)
HCC 2998
  GI50: > 100 µM (inactive)
HCT-116
  GI50: 54.5 µM (inactive)
HCT-15
  GI50: > 100 µM
HL-60
  GI50: 98.2 µM (inactive)
HOP-18
  GI50: > 100 µM (inactive)
HOP-62
  GI50: 21.7 µM (inactive)
HOP-92
  GI50: 13.3 µM (inactive)
HT-29
  GI50: > 100 µM (inactive)
Hs-578T
  GI50: 21.7 µM (inactive)
IGROV-1
  GI50: 38.6 µM (inactive)
K562
  GI50: > 100 µM (inactive)
KM-20L2
  GI50: > 100 µM (inactive)
KM12
  GI50: > 100 µM (inactive)
LOX IMVI
  GI50: > 100 µM (inactive)
LXFL 529
  GI50: > 92 µM (inactive)
M14
  GI50: 84.7 µM (inactive)
M19-MEL
  GI50: > 100 µM (inactive)
MCF7
  GI50: > 100 µM (inactive)
MDA-MB-231
  GI50: 25.5 µM (inactive)
MDA-MB-435
  GI50: > 100 µM (inactive)
MDA-N
  GI50: > 100 µM (inactive)
MOLT-4
  GI50: > 100 µM (inactive)
Malme-3M
  GI50: 57.3 µM (inactive)
NCI-H226
  GI50: 50.8 µM (inactive)
NCI-H23
  GI50: 50.4 µM (inactive)
NCI-H460
  GI50: > 94.2 µM (inactive)
NCI-H522
  GI50: 49.3 µM (inactive)
NCI/ADR-RES
  GI50: 59.2 µM (inactive)
OVCAR-3
  GI50: > 92 µM (inactive)
OVCAR-4
  GI50: 32.6 µM (inactive)
OVCAR-5
  GI50: > 100 µM (inactive)
OVCAR-8
  GI50: 45.9 µM (inactive)
PC-3
  GI50: > 91.8 µM (inactive)
RPMI-8226
  GI50: > 100 µM (inactive)
RXF 393
  GI50: 21.9 µM (inactive)
RXF 631
  GI50: 34.8 µM (inactive)
SF-268
  GI50: 26.2 µM (inactive)
SF-295
  GI50: 18.6 µM (inactive)
SF-539
  GI50: 19 µM (inactive)
SK-MEL-28
  GI50: > 100 µM (inactive)
SK-MEL-2
  GI50: 36.5 µM (inactive)
SK-MEL-5
  GI50: 54.2 µM (inactive)
SK-OV-3
  GI50: 27.5 µM (inactive)
SN12C
  GI50: 89.5 µM (inactive)
SNB-19
  GI50: 18.6 µM (inactive)
SNB-75
  GI50: 12 µM (inactive)
SNB-78
  GI50: 18.6 µM (inactive)
SR
  GI50: > 100 µM (inactive)
SW-620
  GI50: > 100 µM (inactive)
T47D
  GI50: 52.7 µM (inactive)
TK-10
  GI50: 31.6 µM (inactive)
U-251
  GI50: 15.7 µM (inactive)
UACC-257
  GI50: > 72.4 µM (inactive)
UACC-62
  GI50: 61.8 µM (inactive)
UO-31
  GI50: > 71 µM (inactive)
